Measured values reported in patent US20090291942A1, “IMIDAZO PYRIDINE DERIVATIVES” (priority 2008, published 2009).
Where a name gives a salt, the structure may show the parent alone.

Biological target: T1, human GPR4 (Homo sapiens, UniProt P46093)
T1 construct: expressed in transfected cells
Assay: Cell-based assay for human GPR4 activity (pH-induced cAMP formation, HTRF)
Settings: HeLa cells stably expressing human GPR4, pH-induced cAMP formation
Method: a) Cell-Based Assay for Human GPR4 Activity
HeLa cells stably expressing human GPR4 were established by transfecting the cells with a construct containing the human GPR4 coding sequence. The cells were grown in DMEM/HAM's F12 medium supplemented with 10% fetal calf serum (FCS), 100 u/ml penicillin, 100 μg/ml streptomycin and 400 μg/ml G418 and 10 mM Hepes pH 8.0. pH-induced formation of cAMP was determined using the HTRF technology as provided by CisBio Inc. The cells were seeded in 384-well plates and cultured for 24 hours at 37° C., 5% CO2 before performing the assay. Medium was removed and 10 μl buffer A (HBS, 10 mM Hepes, pH 8, 2 mM IBMX) was added. For compound testing, buffer A with 2× concentrated compounds was used. Cells were incubated for 15 min at room temperature. 10 μl buffer B (HBS, 30 mM Hepes, specific pH) was added to reach the appropriate final pH for stimulation (see below) and incubation was continued for 15 min at room temperature. […] HBS: 130 mM NaCl, 0.9 mM NaH2PO4, 5.4 mM KCl, 0.8 mM MgSO4, CaCl2 1.8 mM, 25 mM glucose, 10-30 mM Hepes. Adjustment of HBS buffers: Bf A Bf B Final stimulation pH (1 volume buffer A+1 volume buffer B)
Compounds were diluted from fresh stock solutions at 10 mM in DMSO to 2 mM and then used for serial dilutions in DMSO.

T1 sequence (P46093 whole entry): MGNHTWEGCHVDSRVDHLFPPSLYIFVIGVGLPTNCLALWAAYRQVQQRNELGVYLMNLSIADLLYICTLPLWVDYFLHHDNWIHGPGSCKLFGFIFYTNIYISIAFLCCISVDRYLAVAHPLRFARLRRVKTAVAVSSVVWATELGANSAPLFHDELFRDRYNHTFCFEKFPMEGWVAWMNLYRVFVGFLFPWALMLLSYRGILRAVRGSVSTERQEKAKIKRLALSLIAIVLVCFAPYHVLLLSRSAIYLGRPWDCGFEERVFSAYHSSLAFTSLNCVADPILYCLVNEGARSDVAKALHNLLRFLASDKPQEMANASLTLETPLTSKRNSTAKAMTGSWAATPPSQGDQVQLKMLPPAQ

Point of comparison: CCc1nc2c(C)cc(C)nc2n1Cc1ccc(/C=C/CN2C[C@H]3C[C@@H]2CN3CC)cc1 [Example 74, 2-Ethyl-3-{4-[(E)-3-((1R,4R)-5-ethyl-2,5-diaza-bicyclo[2.2.1]hept-2-yl)-propenyl]-benzyl}-5,7-dimethyl-3H-imidazo[4,5-b]pyridine], IC50 0.323 µM. Against it:
- CCCCc1nc2c(C)cc(C)nc2n1Cc1ccc(/C=C/CN2CCC(N3CCCCC3)CC2)cc1 [Example 86, 1′-{(E)-3-[4-(2-Butyl-5,7-dimethyl-imidazo[4,5-b]pyridin-3-ylmethyl)-phenyl]-allyl}-[1,4′]bipiperidine dihydrochloride] — within 1.5-fold, 0.481 µM
- CCc1nc2c(C)cc(C)nc2n1Cc1ccc(CCCN2C[C@H]3C[C@@H]2CN3CC(C)C)cc1 [Example 27, 2-Ethyl-3-{4-[3-((1R,4R)-5-isobutyl-2,5-diaza-bicyclo[2.2.1]hept-2-yl)-propyl]-benzyl}-5,7-dimethyl-3H-imidazo[4,5-b]pyridine dihydrochloride] — within 1.5-fold, 0.411 µM
- CCc1nc2c(C)cc(C)nc2n1Cc1ccc(/C=C/C(=O)N2CCC(N3CCOCC3)CC2)cc1 [Example 98, (E)-3-[4-(2-Ethyl-5,7-dimethyl-imidazo[4,5-b]pyridin-3-ylmethyl)-phenyl]-1-(4-morpholin-4-yl-piperidin-1-yl)-propenone] — within 1.5-fold, 0.328 µM
- CCc1nc2c(C)cc(C)nc2n1Cc1ccc(/C=C/CN2CCN(C(C)(C)C)CC2)cc1 [Example 51, 3-{4-[(E)-3-(4-tert-Butyl-piperazin-1-yl)-propenyl]-benzyl}-2-ethyl-5,7-dimethyl-3H-imidazo[4,5-b]pyridine] — 2-fold lower, 0.161 µM
- CCc1nc2c(C)cc(C)nc2n1Cc1ccc(/C=C/CN2CCC(N3CCN(C)CC3)CC2)cc1 [Example 35, 2-Ethyl-5,7-dimethyl-3-(4-{(E)-3-[4-(4-methyl-piperazin-1-yl)-piperidin-1-yl]-propenyl}-benzyl)-3H-imidazo[4,5-b]pyridine] — within 1.5-fold, 0.342 µM
- CCCC(C)N1CCN(CCCc2ccc(Cn3c(CC)nc4c(C)cc(C)nc43)cc2)CC1 (stereo not drawn) [Example 14, 2-Ethyl-5,7-dimethyl-3-(4-{3-[4-(1-methyl-butyl)-piperazin-1-yl]-propyl}-benzyl)-3H-imidazo[4,5-b]pyridine] — within 1.5-fold, 0.217 µM
- CCc1nc2c(C)cc(C)nc2n1Cc1ccc(C(=O)NCCCCN2CCCC2)cc1 [Example 99, 4-(2-Ethyl-5,7-dimethyl-imidazo[4,5-b]pyridin-3-ylmethyl)-N-(4-pyrrolidin-1-yl-butyl)-benzamide] — 3.1-fold higher, 0.997 µM
- CCCCCN1CCN(CCCc2ccc(Cn3c(CC)nc4c(C)cc(C)nc43)cc2)CC1 [Example 13, 2-Ethyl-5,7-dimethyl-3-{4-[3-(4-pentyl-piperazin-1-yl)-propyl]-benzyl}-3H-imidazo[4,5-b]pyridine] — 2-fold higher, 0.662 µM
- CCc1nc2c(C)cc(C)nc2n1Cc1ccc(/C=C/CN2CCOC(CN)C2)cc1 (stereo not drawn) [Example 78, C-(4-{(E)-3-[4-(2-Ethyl-5,7-dimethyl-imidazo[4,5-b]pyridin-3-ylmethyl)-phenyl]-allyl}-morpholin-2-yl)-methylamine dihydrochloride] — 2.8-fold lower, 0.114 µM
- Cc1cc(C)c2nc(C(F)(F)F)n(Cc3ccc(/C=C/CN4CCC(N5CCOCC5)CC4)cc3)c2n1 [Example 89, 5,7-Dimethyl-3-{4-[(E)-3-(4-morpholin-4-yl-piperidin-1-yl)-propenyl]-benzyl}-2-trifluoromethyl-3H-imidazo[4,5-b]pyridine dihydrochloride] — 1.8-fold lower, 0.182 µM
- CCc1nc2c(C)cc(C)nc2n1Cc1ccc(CCCCN2CCC(N3CCCCC3)CC2)cc1 [Example 112, 1′-{4-[4-(2-Ethyl-5,7-dimethyl-imidazo[4,5-b]pyridin-3-ylmethyl)-phenyl]-butyl}-[1,4′]bipiperidine] — 5.5-fold lower, 0.059 µM
- CCc1nc2c(C)cc(C)nc2n1Cc1ccc(CCCCN2CCN(C(C)C)CC2)cc1 [Example 111, 2-Ethyl-3-{4-[4-(4-isopropyl-piperazin-1-yl)-butyl]-benzyl}-5,7-dimethyl-3H-imidazo[4,5-b]pyridine dihydrochloride] — within 1.5-fold, 0.412 µM
- CCc1nc2c(C)cc(C)nc2n1Cc1ccc(CCCN2CCN(CC3CCC3)CC2)cc1 [Example 17, 3-{4-[3-(4-Cyclobutylmethyl-piperazin-1-yl)-propyl]-benzyl}-2-ethyl-5,7-dimethyl-3H-imidazo[4,5-b]pyridine dihydrochloride] — 1.8-fold lower, 0.178 µM
- CCc1nc2c(C)cc(C)nc2n1Cc1ccc(CCCN2CCN(C3CC3)CC2)cc1 [Example 9, 3-{4-[3-(4-Cyclopropyl-piperazin-1-yl)-propyl]-benzyl}-2-ethyl-5,7-dimethyl-3H-imidazo[4,5-b]pyridine] — within 1.5-fold, 0.341 µM
- CCc1nc2c(C)cc(C)nc2n1Cc1ccc(C#CCNCCN2CCCC2)cc1 [Example 4, {3-[4-(2-Ethyl-5,7-dimethyl-imidazo[4,5-b]pyridin-3-ylmethyl)-phenyl]-prop-2-ynyl}-(2-pyrrolidin-1-yl-ethyl)-amine] — 2.2-fold higher, 0.704 µM
- CCc1nc2c(C)cc(C)nc2n1Cc1ccc(/C=C/CN2CCN(C3CCCC3)CC2)cc1 [Example 56, 3-{4-[(E)-3-(4-Cyclopentyl-piperazin-1-yl)-propenyl]-benzyl}-2-ethyl-5,7-dimethyl-3H-imidazo[4,5-b]pyridine] — 2-fold lower, 0.165 µM
- CCc1nc2c(C)cc(C)nc2n1Cc1ccc(CCCCN2CCN(C(C)(C)C)CC2)cc1 [Example 110, 3-{4-[4-(4-tert-Butyl-piperazin-1-yl)-butyl]-benzyl}-2-ethyl-5,7-dimethyl-3H-imidazo[4,5-b]pyridine dihydrochloride] — 3.3-fold lower, 0.098 µM
- CCc1nc2c(C)cc(C)nc2n1Cc1ccc(/C=C/CCN2CCN(C(C)C)CC2)cc1 [Example 106, 2-Ethyl-3-{4-[(E)-4-(4-isopropyl-piperazin-1-yl)-but-1-enyl]-benzyl}-5,7-dimethyl-3H-imidazo[4,5-b]pyridine dihydrochloride] — 3.3-fold lower, 0.098 µM
- CCCC(C)N1CCN(C/C=C/c2ccc(Cn3c(CC)nc4c(C)cc(C)nc43)cc2)CC1 (stereo not drawn) [Example 54, 2-Ethyl-5,7-dimethyl-3-(4-{(E)-3-[4-(1-methyl-butyl)-piperazin-1-yl]-propenyl}-benzyl)-3H-imidazo[4,5-b]pyridine dihydrochloride] — 1.9-fold lower, 0.166 µM
- CCc1nc2c(C)cc(C)nc2n1Cc1ccc(CCCN2CCN(C(C)C)C(C)C2)cc1 (stereo not drawn) [Example 23, 2-Ethyl-3-{4-[3-(4-isopropyl-3-methyl-piperazin-1-yl)-propyl]-benzyl}-5,7-dimethyl-3H-imidazo[4,5-b]pyridine] — within 1.5-fold, 0.253 µM
- CCc1nc2c(C)cc(C)nc2n1Cc1ccc(/C=C/CCN2CCC(N3CCN(C)CC3)CC2)cc1 [Example 107, 2-Ethyl-5,7-dimethyl-3-{4-[(E)-4-[4-(4-methyl-piperazin-1-yl)-piperidin-1-yl]-but-1-enyl]-benzyl}-3H-imidazo[4,5-b]pyridine] — 1.7-fold lower, 0.191 µM
- Cc1cc(C)c2nc(C(F)(F)F)n(Cc3ccc(/C=C/CN4CCC(N5CCN(C)CC5)CC4)cc3)c2n1 [Example 88, 5,7-Dimethyl-3-(4-{(E)-3-[4-(4-methyl-piperazin-1-yl)-piperidin-1-yl]-propenyl}-benzyl)-2-trifluoromethyl-3H-imidazo[4,5-b]pyridine trihydrochloride] — 1.6-fold lower, 0.199 µM
- CCc1nc2c(C)cc(C)nc2n1Cc1ccc(/C=C/CN2CCN(CCCF)CC2)cc1 [Example 68, 2-Ethyl-3-(4-{(E)-3-[4-(3-fluoro-propyl)-piperazin-1-yl]-propenyl}-benzyl)-5,7-dimethyl-3H-imidazo[4,5-b]pyridine] — 1.7-fold higher, 0.535 µM
